Experimental data from US20250163038A1, “CBL-B MODULATORS AND USES THEREOF” (Nimbus Clio, Inc., priority 2021, published 2025).
Counter-ions that a name gives are not always drawn.

How the values were obtained:
[1] = biological target: T1, Recombinant human c-Cbl (aa 47-435) (Homo sapiens, UniProt P22681); assay: c-Cbl Biochemical Assay (TR-FRET); conditions: hc-Cbl Biochemical Assay (TR-FRET); read-out: TR-FRET hcCbl IC50
T1 sequence (P22681 47-435): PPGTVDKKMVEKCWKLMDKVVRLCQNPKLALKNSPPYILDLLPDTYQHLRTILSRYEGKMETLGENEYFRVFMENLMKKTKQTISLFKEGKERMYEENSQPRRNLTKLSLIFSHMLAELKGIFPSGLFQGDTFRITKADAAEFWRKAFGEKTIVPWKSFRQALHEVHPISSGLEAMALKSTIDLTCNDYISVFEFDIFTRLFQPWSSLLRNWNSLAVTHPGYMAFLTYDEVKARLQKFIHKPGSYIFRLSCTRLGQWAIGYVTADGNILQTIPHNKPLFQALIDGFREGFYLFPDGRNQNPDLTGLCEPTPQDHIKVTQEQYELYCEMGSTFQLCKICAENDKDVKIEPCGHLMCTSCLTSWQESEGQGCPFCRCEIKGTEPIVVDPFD

[2] = biological target: Recombinant human Cbl-b (aa 36-427) (Homo sapiens, UniProt Q13191); assay: Cbl-b Biochemical Assay (TR-FRET); conditions: read-out: TR-FRET hCbl-b IC50
[3] = system: Jurkat (clone E6-1) cells with NFAT luciferase reporter; assay: Jurkat reporter assay (NFAT Luciferase); type: cell-based; conditions: Homo sapiens; Jurkat NFAT luciferase reporter cells, anti-CD3 stimulation, 6 hr; read-out: Jurkat NFAT EC50

Sequence of Recombinant human Cbl-b (aa 36-427) (Q13191 36-427): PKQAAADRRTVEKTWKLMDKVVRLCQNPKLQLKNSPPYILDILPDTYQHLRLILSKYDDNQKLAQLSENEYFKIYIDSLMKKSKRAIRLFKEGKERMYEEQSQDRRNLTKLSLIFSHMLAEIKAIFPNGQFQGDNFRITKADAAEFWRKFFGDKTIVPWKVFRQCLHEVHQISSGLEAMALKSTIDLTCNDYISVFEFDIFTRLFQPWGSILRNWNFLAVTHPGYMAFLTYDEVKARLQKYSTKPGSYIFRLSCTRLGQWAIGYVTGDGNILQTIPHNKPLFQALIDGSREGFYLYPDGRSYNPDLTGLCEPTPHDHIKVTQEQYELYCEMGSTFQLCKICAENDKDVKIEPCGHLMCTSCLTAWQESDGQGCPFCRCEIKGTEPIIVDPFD

Compound	IC50 [1]	IC50 [2]	EC50 [3]
COc1cc(CO)cc2nc(-c3cccc(-c4ccc(F)cc4-c4nncn4C)c3)oc12 [DW-3, (2-(4′-Fluoro-2′-(4-methyl-4H-1,2,4-triazol-3-yl)-[1,1′-biphenyl]-3-yl)-7-methoxybenzo[d]oxazol-5-yl)methanol]	1000 to 10000 nM	1000 to 10000 nM	10000 to 50000 nM
Cn1cnnc1-c1cc(F)ccc1-c1cccc(-c2nc3cc(CNCC4(C#N)CCOCC4)cc(C(F)(F)F)c3o2)c1 [DY-1, 4-((((2-(4′-Fluoro-2′-(4-methyl-4H-1,2,4-triazol-3-yl)-[1,1′-biphenyl]-3-yl)-7-(trifluoromethyl)benzo[d]oxazol-5-yl)methyl)amino)methyl)tetrahydro-2H-pyran-4-carbonitrile]	200 to 1000 nM	< 200 nM	200 to 1000 nM
COCCNCc1ccc2oc(-c3cccc(-c4ccc(F)cc4-c4nncn4C)c3)nc2c1 [DZ-1, N-((2-(4′-Fluoro-2′-(4-methyl-4H-1,2,4-triazol-3-yl)-[1,1′-biphenyl]-3-yl)benzo[d]oxazol-5-yl)methyl)-2-methoxyethan-1-amine]	200 to 1000 nM	200 to 1000 nM	1000 to 10000 nM
Cn1cnnc1-c1cc(F)ccc1-c1cccc(-c2nc3cc(CN)cc(C(F)(F)F)c3o2)c1 [EB-1, (2-(4′-Fluoro-2′-(4-methyl-4H-1,2,4-triazol-3-yl)-[1,1′-biphenyl]-3-yl)-7-(trifluoromethyl)benzo[d]oxazol-5-yl)methanamine]	200 to 1000 nM	< 200 nM	1000 to 10000 nM
Cn1cnnc1-c1cc(F)ccc1-c1cccc(-c2nc3cc(CNS(C)(=O)=O)cc(C(F)(F)F)c3o2)c1 [EC-1, N-((2-(4′-Fluoro-2′-(4-methyl-4H-1,2,4-triazol-3-yl)-[1,1′-biphenyl]-3-yl)-7-(trifluoromethyl)benzo[d]oxazol-5-yl)methyl)methanesulfonamide]	200 to 1000 nM	< 200 nM	1000 to 10000 nM
Cn1cnnc1-c1cc(F)ccc1-c1cccc(-c2nc3cc(CN[C@@H]4CCC[C@@H]4O)cc(F)c3o2)c1 [ED-7, (1S,2R)-2-(((7-Fluoro-2-(4′-fluoro-2′-(4-methyl-4H-1,2,4-triazol-3-yl)-[1,1′-biphenyl]-3-yl)benzo[d]oxazol-5-yl)methyl)amino)cyclopentan-1-ol]	< 200 nM	< 200 nM	< 200 nM
COCCCNCc1cc(C(F)(F)F)c2oc(-c3cccc(-c4ccc(F)cc4-c4nncn4C)c3)nc2c1 [EE-2, N-((2-(4′-Fluoro-2′-(4-methyl-4H-1,2,4-triazol-3-yl)-[1,1′-biphenyl]-3-yl)-7-(trifluoromethyl)benzo[d]oxazol-5-yl)methyl)-3-methoxypropan-1-amine]	< 200 nM	< 200 nM	< 200 nM
CC(NCC1(O)CCC1)c1cc(C(F)(F)F)c2oc(-c3cccc(-c4ccc(F)cc4-c4nncn4C)c3)nc2c1 (stereo not drawn) [EF-1, 1-(((1-(2-(4′-Fluoro-2′-(4-methyl-4H-1,2,4-triazol-3-yl)-[1,1′-biphenyl]-3-yl)-7-(trifluoromethyl)benzo[d]oxazol-5-yl)ethyl)amino)methyl)cyclobutan-1-ol, formate]	< 200 nM	< 200 nM	< 200 nM
Cn1cnnc1-c1cc(F)ccc1-c1cccc(-c2nc3cc(CN4CO[C@H]5CCC[C@H]54)cc(C(F)(F)F)c3o2)c1 [EH-1, 2-(4′-Fluoro-2′-(4-methyl-4H-1,2,4-triazol-3-yl)-[1,1′-biphenyl]-3-yl)-5-(((3aR,6aS)-tetrahydro-2H-cyclopenta[d]oxazol-3(3aH)-yl)methyl)-7-(trifluoromethyl)benzo[d]oxazole]	< 200 nM	< 200 nM	< 200 nM
CN(C)C(=O)CNCc1cc(C(F)(F)F)c2oc(-c3cccc(-c4ccc(F)cc4-c4nncn4C)c3)nc2c1 [EI-4, 2-(((2-(4′-Fluoro-2′-(4-methyl-4H-1,2,4-triazol-3-yl)-[1,1′-biphenyl]-3-yl)-7-(trifluoromethyl)benzo[d]oxazol-5-yl)methyl)amino)-N,N-dimethylacetamide]	200 to 1000 nM	< 200 nM	200 to 1000 nM
COC[C@H](C)NCc1cc(C(F)(F)F)c2oc(-c3cccc(-c4ccc(F)cc4-c4nncn4C)c3)nc2c1 [EJ-2, (S)—N-((2-(4′-Fluoro-2′-(4-methyl-4H-1,2,4-triazol-3-yl)-[1,1′-biphenyl]-3-yl)-7-(trifluoromethyl)benzo[d]oxazol-5-yl)methyl)-1-methoxypropan-2-amine]	< 200 nM	< 200 nM	< 200 nM
Cn1cnnc1-c1cc(F)ccc1-c1cccc(-c2nc3ccc(CN[C@@H]4CCC[C@@H]4O)cc3s2)c1 [EK-5, (1S,2R)-2-(((2-(4′-Fluoro-2′-(4-methyl-4H-1,2,4-triazol-3-yl)-[1,1′-biphenyl]-3-yl)benzo[d]thiazol-6-yl)methyl)amino)cyclopentan-1-ol]	1000 to 10000 nM	1000 to 10000 nM	1000 to 10000 nM
COCCNCc1cc(OC)c2oc(-c3cccc(-c4ccc(F)cc4-c4nncn4C)c3)nc2c1 [EL-1, N-((2-(4′-Fluoro-2′-(4-methyl-4H-1,2,4-triazol-3-yl)-[1,1′-biphenyl]-3-yl)-7-methoxybenzo[d]oxazol-5-yl)methyl)-2-methoxyethan-1-amine]	< 200 nM	< 200 nM	200 to 1000 nM

Next, values leading:

IC50 [1]	IC50 [2]	EC50 [3]	Compound
< 200 nM	< 200 nM	< 200 nM	Cn1cnnc1-c1cc(F)ccc1-c1cccc(-c2nc3cc(CN[C@@H]4CCC[C@]4(C)O)cc(C(F)(F)F)c3o2)c1 [DP-6, (1S,2R)-2-(((2-(4′-Fluoro-2′-(4-methyl-4H-1,2,4-triazol-3-yl)-[1,1′-biphenyl]-3-yl)-7-(trifluoromethyl)benzo[d]oxazol-5-yl)methyl)amino)-1-methylcyclopentan-1-ol]
< 200 nM	< 200 nM	< 200 nM	Cn1cnnc1-c1cc(F)ccc1-c1cccc(-c2nc3cc(CNCC4(O)CCC4)ccc3o2)c1 [DQ-1, 1-((((2-(4′-Fluoro-2′-(4-methyl-4H-1,2,4-triazol-3-yl)-[1,1′-biphenyl]-3-yl)benzo[d]oxazol-5-yl)methyl)amino)methyl)cyclobutan-1-ol]
< 200 nM	< 200 nM	200 to 1000 nM	Cn1cnnc1-c1cc(F)ccc1-c1cccc(-c2nc3cc(CN4CC[C@@H](C#N)C4)cc(C(F)(F)F)c3o2)c1 [DR-2, (R)-1-((2-(4′-Fluoro-2′-(4-methyl-4H-1,2,4-triazol-3-yl)-[1,1′-biphenyl]-3-yl)-7-(trifluoromethyl)benzo[d]oxazol-5-yl)methyl)pyrrolidine-3-carbonitrile]
< 200 nM	< 200 nM	< 200 nM	Cn1cnnc1-c1cc(F)ccc1-c1cccc(-c2nc3cc(CNC4CCCC4)cc(C(F)(F)F)c3o2)c1 [DS-2, N-((2-(4′-Fluoro-2′-(4-methyl-4H-1,2,4-triazol-3-yl)-[1,1′-biphenyl]-3-yl)-7-(trifluoromethyl)benzo[d]oxazol-5-yl)methyl)cyclopentanamine]
< 200 nM	< 200 nM	< 200 nM	Cn1cnnc1-c1cc(F)ccc1-c1cccc(-c2nc3cc(CN[C@@H]4CC[C@@H]4O)cc(C(F)(F)F)c3o2)c1 [DU-2, (1S,2R)-2-(((2-(4′-Fluoro-2′-(4-methyl-4H-1,2,4-triazol-3-yl)-[1,1′-biphenyl]-3-yl)-7-(trifluoromethyl)benzo[d]oxazol-5-yl)methyl)amino)cyclobutan-1-ol]
< 200 nM	< 200 nM	< 200 nM	Cn1cnnc1-c1cc(F)ccc1-c1cccc(-c2nc3cc(CNCC4CCCC4)cc(C(F)(F)F)c3o2)c1 [DV-2, 1-Cyclopentyl-N-((2-(4′-fluoro-2′-(4-methyl-4H-1,2,4-triazol-3-yl)-[1,1′-biphenyl]-3-yl)-7-(trifluoromethyl)benzo[d]oxazol-5-yl)methyl)methanamine]
< 200 nM	< 200 nM	< 200 nM	COc1cc(CN[C@@H]2CCC[C@@H]2O)cc2nc(-c3cccc(-c4ccc(F)cc4-c4nncn4C)c3)oc12 [DX-2, (1S,2R)-2-(((2-(4′-Fluoro-2′-(4-methyl-4H-1,2,4-triazol-3-yl)-[1,1′-biphenyl]-3-yl)-7-methoxybenzo[d]oxazol-5-yl)methyl)amino)cyclopentan-1-ol]
< 200 nM	< 200 nM	< 200 nM	C[C@H](N[C@@H]1CCC[C@@H]1O)c1cc(C(F)(F)F)c2oc(-c3cccc(-c4ccc(F)cc4-c4nncn4C)c3)nc2c1 [EA-1, (1S,2R)-2-(((S)-1-(2-(4′-Fluoro-2′-(4-methyl-4H-1,2,4-triazol-3-yl)-[1,1′-biphenyl]-3-yl)-7-(trifluoromethyl)benzo[d]oxazol-5-yl)ethyl)amino)cyclopentan-1-ol]
< 200 nM	< 200 nM	< 200 nM	C[C@@H](N[C@@H]1CCC[C@@H]1O)c1cc(C(F)(F)F)c2oc(-c3cccc(-c4ccc(F)cc4-c4nncn4C)c3)nc2c1 [EA-2, (1S,2R)-2-(((R)-1-(2-(4′-Fluoro-2′-(4-methyl-4H-1,2,4-triazol-3-yl)-[1,1′-biphenyl]-3-yl)-7-(trifluoromethyl)benzo[d]oxazol-5-yl)ethyl)amino)cyclopentan-1-ol]
